Assay results published in ChEMBL document CHEMBL4610069, “Chetocochliodins A-I, Epipoly(thiodioxopiperazines) from Chaetomium cochliodes” (J Nat Prod, 2020).
Active and inactive are the calls of the source. No cut-off for these calls is given here.

Key:
Format in all cases: functional, cell-based
[1] = system: Huh-7; assay: Cytotoxicity against human HuH7 cells up to 100 uM by MTT assay
[2] = system: HeLa; assay: Cytotoxicity against human HeLa cells up to 100 uM by MTT assay
[3] = system: A549; assay: Cytotoxicity against human A549 cells up to 100 uM by MTT assay
[4] = system: HeLa; assay: Cytotoxicity against human HeLa cells by MTT assay
[5] = system: Huh-7; assay: Cytotoxicity against human HuH7 cells by MTT assay
[6] = system: A549; assay: Cytotoxicity against human A549 cells by MTT assay

Q: How did the Activity [1] turn out when `CO[C@]1(Cc2c[nH]c3ccccc23)NC(=O)[C@H](CO)N(C)C1=O` was run?
A: Its Activity is “inactive”.

Q: And the Activity [2]?
A: The Activity was “inactive”.

Q: And the Activity [3]?
A: The Activity was “inactive”.

Q: Which results are given for `CO[C@]1(CO)NC(=O)[C@](Cc2c[nH]c3ccccc23)(OC)NC1=O`?
A: Activity [1]: inactive; Activity [2]: inactive; Activity [3]: inactive

Q: Which Activity [4] does the source give for `CO[C@]1(CO)NC(=O)[C@](Cc2c[nH]c3ccccc23)(SC)NC1=O` here?
A: The Activity was “inactive”.

Q: And the Activity [5]?
A: The Activity was “inactive”.

Q: What about the Activity [6] of the same molecule?
A: Its Activity is “inactive”.

Q: What does the source list for `CS[C@]1(CO)NC(=O)[C@](Cc2c[nH]c3ccccc23)(SC)NC1=O`?
A: Activity [4]: inactive; Activity [5]: inactive; Activity [6]: inactive

Q: `CO[C@]1(CO)NC(=O)[C@@](Cc2c[nH]c3ccccc23)(OC)NC1=O` was tested. Which Activity [1] did it give?
A: Its Activity is “inactive”.

Q: What about the Activity [2] of the same molecule?
A: Its Activity is “inactive”.

Q: And the Activity [3]?
A: Its Activity is “inactive”.

Q: For `CN1C(=O)[C@]2(Cc3c[nH]c4ccccc34)SSSS[C@@]1(CO)C(=O)N2C`, which IC50 [4] is on record?
A: The IC50 was 930 to 2450 nM.

Q: And the IC50 [5]?
A: Its IC50 is 930 to 2450 nM.

Q: And the IC50 [6]?
A: Its IC50 is 930 to 2450 nM.

Q: Which Activity [4] does the source give for `CO[C@@]1(CO)NC(=O)[C@](Cc2c[nH]c3ccccc23)(SC)NC1=O` here?
A: The Activity was “inactive”.

Q: What about the Activity [5] of the same molecule?
A: Its Activity is “inactive”.

Q: And the Activity [6]?
A: The Activity was “inactive”.
